Test results taken from US7381542B2, “Nucleic acids encoding a biogenic amine receptor” (Oregon Health & Science University, priority 2001, dated 2008).
Entries after “also recorded” stand apart in the source; their conditions may differ. Like-named read-outs stand apart in the source and are kept apart here.

Key:
rat trace amine receptor = molecular target: T1, rat trace amine receptor (Rattus norvegicus, UniProt Q923Y9, L170Q/L53I/P183L/R211E/S15R); experiment: cell-based; assay type: cell-based; settings: for Emax: HEK293, percent of stimulation by p-tyramine, read-out: Maximal Stimulation (% ± SEM)
T1 construct: expression vector containing the full-length rat cDNA clone described above; expressed in transfected cells

[1] = test system: HEK 293 cells transfected with pcDNA3.1; experiment: MAP kinase pathway luciferase reporter in control HEK 293 cells transfected with pcDNA3.1 without receptor; assay type: cell-based, human; settings: compared with cells incubated in the absence of the ligand
From the text: (§1) Control cells were transfected with pcDNA3.1 without the rat trace amine receptor sequences. All cells were also co-transfected with 2 additional constructs: one (elk-gal) that encoded the yeast transcription factor gal under the transcriptional control of an Elk-responsive promoter, and another encoding firefly luciferase under the transcriptional control of a gal-responsive promoter.

[2] = molecular target: T2, human trace amine receptor (Homo sapiens, UniProt Q96RJ0, S183L/Y279S); experiment: MAP kinase pathway (Elk-gal/luciferase reporter) stimulation in HEK 293 cells transfected with H2-3 pcDNA3.1; assay type: cell-based; settings: compared with cells incubated in the absence of the ligand; receptor-transfected HEK 293 cells
T2 construct: expressed in transfected cells; host or cells: HEK 293 cells, pcDNA 3.1 vector (construct H2-3 pcDNA3.1)
T2 sequence (Q96RJ0 1-339 S183L/Y279S): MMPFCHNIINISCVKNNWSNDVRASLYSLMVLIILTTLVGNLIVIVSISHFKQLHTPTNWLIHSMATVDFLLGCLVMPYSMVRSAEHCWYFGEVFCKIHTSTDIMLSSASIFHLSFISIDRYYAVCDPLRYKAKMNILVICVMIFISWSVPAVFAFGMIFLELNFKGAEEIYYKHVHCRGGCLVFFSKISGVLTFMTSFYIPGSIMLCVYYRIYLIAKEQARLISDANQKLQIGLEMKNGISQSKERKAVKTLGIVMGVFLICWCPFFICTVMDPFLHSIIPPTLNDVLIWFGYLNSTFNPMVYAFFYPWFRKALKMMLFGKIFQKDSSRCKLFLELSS
From the text: as §1

[3] = EC50 (nM), NEUROTRANSMITTERS, first column
[4] = EC50 (nM), NEUROTRANSMITTERS, second column (no head of its own)
[5] = Table III, cAMP, 1 hour at 37° C., 100 μM IBMX, read-out: EC50 (nM ± SEM)
[6] = untitled table after Table III, first value column, read-out: EC50 (nM), NEUROTRANSMITTERS, first column
[7] = untitled table after Table III, second value column, read-out: EC50 (nM), NEUROTRANSMITTERS, second column (no head of its own)
[8] = untitled table after Table III, drugs, read-out: EC50 (nM), DRUGS

T1 sequence (Q923Y9 whole entry S15R/L53I/L170Q/P183L/R211E): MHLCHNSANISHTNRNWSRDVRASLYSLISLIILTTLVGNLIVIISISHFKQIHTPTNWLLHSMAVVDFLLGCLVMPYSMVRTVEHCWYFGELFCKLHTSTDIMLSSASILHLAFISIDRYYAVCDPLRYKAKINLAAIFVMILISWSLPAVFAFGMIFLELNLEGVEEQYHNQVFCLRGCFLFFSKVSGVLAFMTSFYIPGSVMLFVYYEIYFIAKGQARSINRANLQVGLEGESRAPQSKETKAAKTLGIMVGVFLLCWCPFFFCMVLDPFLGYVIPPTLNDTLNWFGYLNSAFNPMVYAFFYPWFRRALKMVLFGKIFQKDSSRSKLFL

NCC(O)c1ccc(O)cc1 (centres unmarked) [Octopamine]
EC50 (rat trace amine receptor; EC50 (nM ± SEM)): 1300 ± 350 nM | EC50 (rat trace amine receptor; [3]): 874 nM | EC50 (rat trace amine receptor; [4]): 1400 nM

C=CCN1CCc2c(cc(O)c(O)c2Cl)C(c2ccccc2)C1 (centres unmarked) [SKF82958]
fold stimulation (luciferase), pcDNA3.1 [1]: 0.79 fold

NCCc1ccccc1 [Phenethylamine, β-phenethylamine]
EC50 (rat trace amine receptor; [5]): 237 ± 71 nM | EC50 (rat trace amine receptor; [6]): 218 nM | EC50 (rat trace amine receptor; [7]): 124 nM

NCCc1ccc(O)cc1 [p-tyramine]
EC50 (rat trace amine receptor; EC50 (nM ± SEM)): 69 ± 9 nM | EC50 (rat trace amine receptor; EC50 (nM), DRUGS): 20.2 nM | EC50 (rat trace amine receptor; [3]): 44.9 nM | EC50 (rat trace amine receptor; [4]): 82 nM | Emax (rat trace amine receptor; Table III): 100%

NCCc1c[nH]c2ccccc12 [Tryptamine]
EC50 (rat trace amine receptor; [5]): 309 ± 76 nM | EC50 (rat trace amine receptor; [6]): 248 nM | EC50 (rat trace amine receptor; [7]): 519 nM

CN[C@H](C)Cc1ccccc1 [R-methamphetamine]
EC50 (rat trace amine receptor; [8]): 236 nM

CN1CC=C(c2ccccc2)CC1 [MPTP, 1-methyl 4phenyl-1,2,3,6-tetrahydropyridine]
EC50 (rat trace amine receptor; [5]): 99 ± 11 nM

COc1cc(C(O)CN)ccc1O (stereo not drawn) [normetanephrine, 3-methoxy-β-4-dihydroxy-β-phenethylamine]
potency relative to precursor catecholamines dopamine, norepinephrine, epinephrine (rat trace amine receptor): significantly more potent; also recorded: more potently activated

CN1C[C@H](C(=O)N[C@]2(C)O[C@@]3(O)[C@@H]4CCCN4C(=O)[C@H](Cc4ccccc4)N3C2=O)C[C@@H]2c3cccc4[nH]cc(c34)C[C@H]21 [dihydroergotamine]
activation of the trace amine receptor (cAMP production), in words (rat trace amine receptor; listed as dihydroergotsmnine): stimulate camp production

NCCc1c[nH]c2ccc(O)cc12 [5-hydroxytryptamine]
Emax (rat trace amine receptor; Table III): 47 ± 9% | EC50 (rat trace amine receptor; [5]): 12800 ± 4180 nM | EC50 (rat trace amine receptor; [6]): 1910 nM | EC50 (rat trace amine receptor; [7]): 8000 nM | fold stimulation (luciferase), pcDNA3.1 [1]: 1 fold | fold stimulation (luciferase), H2-3 pcDNA3.1 [2]: 1.22 fold

NCCc1cccc(O)c1 [m-tyramine]
EC50 (rat trace amine receptor; [5]): 5370 ± 1180 nM | EC50 (rat trace amine receptor; [6]): 7190 nM | EC50 (rat trace amine receptor; [7]): 5800 nM

COc1cc(CC(=O)O)ccc1O [homovanillic acid, 3-methoxy4-hydroxyphenylacetic acid]
activation of the trace amine receptor (cAMP production), in words (rat trace amine receptor): no detectable activity

N[C@@H](CCC(=O)O)C(=O)O [glutamate]
activation of the trace amine receptor (cAMP production), in words (rat trace amine receptor): not activated

CNCC(O)c1ccc(O)cc1 (centres unmarked) [Synephrine]
EC50 (rat trace amine receptor; [5]): 584 ± 100 nM

COc1cc(CCN)ccc1O [3-methoxytyramine]
potency relative to precursor catecholamines dopamine, norepinephrine, epinephrine (rat trace amine receptor): significantly more potent; also recorded: more potently activated

CNCC(O)c1ccc(O)c(OC)c1 (stereo not drawn) [metanephrine, 3-methoxy-β-4-dihydroxy-N-methyl-β-phenethylamine]
potency relative to precursor catecholamines dopamine, norepinephrine, epinephrine (rat trace amine receptor): significantly more potent; also recorded: more potently activated

CN[C@@H](C)Cc1ccccc1 [S-methamphetamine]
EC50 (rat trace amine receptor; [8]): 188 nM

COc1ccc(CCN)cc1 [p-methoxy PEA]
EC50 (rat trace amine receptor; [8]): 346 nM
